The record followed here is patent publication US11731977B2, “SGC stimulators” (Cyclerion Therapeutics, Inc., priority 2016, dated 2023).

Structures are written as SMILES.

The test system of test [1] is rats. Nature of the test: Acute and tonic pain: formalin test, score (Example 13). Type of test: in vivo, rat. The following applies: Compound I-1 p.o. 10 mg/kg, 120 minutes after treatment. The method, then:
Formalin Test. 2.5% formalin solution was injected by subplantar route into the right hind paw. Scoring of pain behavior was performed in rats for 36 minutes every 3 minutes according to the following scores:
0=normal behavior of the injected hind limb to support the body
1=slight touching of the injected paw on the floor to lightly support or not support the body
2=total withdrawal of the injected paw
3=licking, biting or shaking of the injected paw

The test system of test [2] is rats. Nature of the test: Inflammatory pain: kaolin, gait score (Example 13). It counts as in vivo, rat. The conditions noted are these: Compound I-1 p.o. 10 mg/kg, 120 minutes after treatment. The protocol:
Kaolin. Induction: In rats, unilateral arthritis was induced by an intra-articular injection of a 10% kaolin suspension into the knee joint of the right hind paw under gas anesthesia (3.5% isoflurane/3 L/min). Gait score: The gait score will be evaluated 3 h 30 min after kaolin administration by:
2: intermittent raising of the paw

Test [3] deals with brain activity in awake rats. Nature of the test: Brain activation in rats measured by fMRI-BOLD (Example 11). Type of test: in vivo, rat. The following applies: single IV administration, vs peripherally restricted sGC stimulator. The source says: Objective. Functional magnetic resonance imaging or functional MRI (fMRI) is a functional neuroimaging procedure using MRI technology that measures brain activity by detecting changes associated with blood flow. This technique relies on the fact that cerebral blood flow and neuronal activation are coupled. When an area of the brain is in use, blood flow to that region also increases. Awake rats were studied by fMRI to assess changes (“fingerprint”) in brain activity following a single intravenous administration of a compound of the invention
Experimental Design. 24 male Sprague-Dawley rats weighing from 275-350 g were used. Following acclimation, the animals were placed in the restrainer and positioned in the magnet. Catheters were placed in each animal to allow for remote dosing when the animals were in the magnet. Scans were acquired continuously for 5 minutes prior to administration of either a vehicle or a compound of the invention to establish a baseline for the brain activity. Following the 5-minute baseline period, either the vehicle or the compound of the invention was administered to the rat and scans were acquired continuously for 30-45 minutes.

The next test concerns male Long Evans rats. In words: Novel Object Recognition (NOR) test, MK-801-induced memory disruption (Example 10). Type of test: in vivo, rat. The conditions noted are these: for reversal of MK-801-induced memory deficits (Recognition Index): Galantamine 1 mg/kg, vs Vehicle/MK-801; for Recognition Index, Mean: 0 to 3 minute time bin. The source says:
Objective. To assess the efficacy of compounds of the invention in reversing memory disruption induced by MK-801 using the Novel Object Recognition (NOR) test in male Long Evans rats. The NOR is a test of recognition learning and memory retrieval, which takes advantage of the spontaneous preference of rodents to investigate a novel object compared with a familiar one (Ennaceur and Delacour, 1988). […] The NOR test has been employed extensively to assess the potential cognitive-enhancing properties of novel test compounds. […] In the present study, a memory saving model was used to test the novel compound—MK-801 (Dizocilpine), an uncompetitive antagonist of the NMD A receptor was used to cause deficit of recognition memory. Compounds of the invention were evaluated through its efficacy in reversing memory impairment.
Animals. Adult male Long-Evans rats (275-299 gram at arrival from Envigo, Indianapolis, Ind.) were used in this study. Rats were placed in the experimental rooms and assigned unique identification numbers (tail marks). Rats were housed 2 per cage in polycarbonate cages with filter tops and acclimated for at least 7 days prior to testing. Animal room was maintained in a 12/12 h light/dark cycle (lights on at 07.00 EST), 22±1° C. and relative humidity at approximately 50%. Food and water were provided ad libitum. All animals were examined, handled and weighed prior to the study to assure adequate health and to minimize the non-specific stress associated with testing. Each animal was randomly assigned across the treatment groups. The experiments were conducted during the animal's light cycle phase.
MK-801 (0.1 mg/kg; Sigma-Aldrich) was dissolved in saline and injected IP 15 min prior to NOR training.
Galantamine (1 mg/kg; Tocris) was dissolved in saline and injected IP 15 minutes prior to training.
Compound I-1 (0.01, 0.1, and 1 mg/kg) was oral administrated 60 minutes prior to training. The dose volume was 4 ml/kg
Experimental procedures. NOR test was conducted in an open-field arena (40×40 cm) placed in a sound-attenuated room under dimmed lighting. Each rat was tested separately and care was taken to remove olfactory/taste cues by cleaning the arena and test objects with 70% alcohol between trials and rats. All training and testing trials were video-taped and scored by an observer blind to treatments.
On Days 1 and 2, rats were allowed to freely explore the arena (no objects inside) for a 5-minute habituation period. On Day 3 (training and testing day), rats were administered vehicle (saline), galantamine or compound solutions followed by MK-801 or vehicle (saline). After the pretreatment time, each animal was placed into the test arena in the presence of two identical objects. Each rat was placed in the arena facing the same direction at the same position, and the time spent actively exploring the objects during a 3-minute training period (T1) was recorded. The rat was returned to its home cage following training. NOR test (T2) was conducted 1 hours after T1. Each rat was placed back into the test arena in the presence of one familiar object and one novel object for 5 minutes, and the time spent exploring both objects was recorded during 0-1, 0-3 and 0-5 min time ranges. The presentation order and position of the objects (left/right) in T2 was randomized between rats to prevent bias from order or place preference.
Statistical Analysis. Data of NOR test (T2) were expressed as Recognition Index, which is defined as the ratio of the time spent exploring the novel object over the total time spent exploring both objects (Novel/(Familiar+Novel)×100%) during the test session. Data were analyzed by using one-way ANOVA followed by Fisher's LSD post hoc test on 0-1, 0-3 and 0-5 minute time range separately, with significance set at P<0.05. […] And then statistical outliers that fell above or below two standard deviations from the mean were removed from the final analysis. […]

The test system of test [4] is rats. Nature of the test: Acute and tonic pain: acetic acid test, abdominal cramps (Example 13). The conditions noted are these: Compound I-1 p.o. 10 mg/kg, 120 minutes after treatment.
Procedure: Acetic Acid Test. Abdominal contraction was induced by intraperitoneal injection of 0.6% acetic acid solution in rats (10 mL/kg). The number of writhing (a twisting or contorting of the body due to pain) was recorded from the 5th to the 15th minute after injection.
Testing: 120 minutes after treatment. N=4/model/test. Results are expressed for each group as a percentage of activity calculated from the mean value of the vehicle-treated animals and compared to naïve animals, control paw, or cut-off value, depending on the test.
Test [5] has as its system rats. Nature of the test: Inflammatory pain: carrageenan, paw pressure test (Example 13). The conditions noted are these: Compound I-1 p.o. 10 mg/kg, 120 minutes after treatment. Type of test: in vivo, rat. (In the carrageenan paw model, swelling and tenderness develop within hours.)

As to `Fc1ccccc1Cc1nc(-c2nc(C(F)(F)F)n[nH]2)cn2ccnc12` [Compound I-1, 8-(2-fluorobenzyl)-6-(3-(trifluoromethyl)-1H-1,2,4-triazol-5-yl)imidazo[1,2-a]pyrazine], the “% of activity vs. vehicle” value in the test with rats [1] (Formalin test - score (early phase)) came out at 57%; in the test on rats [1] (Formalin test - score (late phase)), 32%; with rats [2], 40%; in the test with rats [4] it was 7%; in the test with rats [5], 38%. Further, in test [3], the “brain activation (fMRI-BOLD)” value was “a greater region of the brain is activated”. Also, the “reversal of MK-801-induced memory deficits (Recognition Index)” value with male Long Evans rats (0-1 min time range, Compound I-1 1 mg/kg) is on record as “significantly reversed”; with male Long Evans rats (0-3 minute time range, Compound I-1 0.1 and 1 mg/kg), “significantly reversed”; with male Long Evans rats (0-5 minute time range, Compound I-1 1 mg/kg) it was “significantly reversed”. The “Recognition Index, Mean” value in the test on male Long Evans rats (I-1 (0.1 mg/kg) oral + MK-801) is listed as 60.1%; with male Long Evans rats (I-1 (1 mg/kg) oral + MK-801), 64.8%; in the test with male Long Evans rats (I-1 (10 mg/kg) oral + MK-801) it was 66.8%.
